Non-standard residues stand in square brackets, D forms with d. Residues, ends and D or L forms follow the SMILES beside them. *: point of attachment. Sta = CC(C)C[C@H](N)[C@@H](O)CC(=O)O; Isovaleryl = CC(C)CC(=O)*
Biological target: endothelin converting enzyme (active Mono Q fractions of rat lung plasma membranes)
Experiment: Endothelin converting enzyme activity in active Mono Q fractions
Format: biochemical
Details: read-out: IC50 for inhibition of endothelin converting enzyme activity
Experimental: (§1) Rat lung plasma membranes were prepared and assayed for endothelin converting enzyme activity as previously described (Biochem. Biophys. Res. Commun. 171 1291 (1990)).
Rat lung plasma membranes (400 mg) were solubilized by stirring at 4° C. for 45 minutes in 50 ml of 20 mM Tris-HCl, pH 7.7 containing 2 mM dithiothreitol and 46 mM NOG (Buffer C). The unsolubilized materials were removed by centrifugation at 60,000×g for 30 minutes. Solubilized materials were injected onto a Mono Q HR 10/10 column (Pharmacia) and eluted with concentration gradients of 0-1M NaCl in 240 ml of Buffer C at 4 ml/minute. (Endothelin converting enzyme active fractions were eluted from 0.07 to 0.14 M NaCl). Absorbance at 280 nm was monitored by a LKB 2150 UVICORD SD monitor. Fractions were analyzed for endothelin converting enzyme activity and by SDS-PAGE. Protein content was determined by the Bio-Rad Protein Assay kit.
The enzyme has an apparent molecular mass of 90 KD as estimated by SDS-PAGE or gel filtration and appears to be a single peptide protein. […] The enzyme may exist as isozymes with pIs at 6.2 and 6.3. […] The endothelin converting enzyme activity in active Mono Q fractions was inhibited by pepstatin A with an IC50 of 5 nM. […]

Compound | IC50 [nM]
CC(C)CC(=O)N[C@H](C(=O)N[C@H](C(=O)N[C@@H](CC(C)C)[C@@H](O)CC(=O)N[C@@H](C)C(=O)N[C@@H](CC(C)C)[C@@H](O)CC(=O)O)C(C)C)C(C)C [pepstatin A] (Isovaleryl-VV[Sta]A[Sta]-OH) | 5

Tested on: solubilized endothelin converting enzyme (P3 from rat lung)
Experiment: Endothelin converting enzyme activity of solubilized enzyme with protease inhibitors
Format: biochemical
Details: at 40 mM; solubilized ECE (P3 from rat lung)
Experimental: as §1
The enzyme has an apparent molecular mass of 90 KD as estimated by SDS-PAGE or gel filtration and appears to be a single peptide protein. […] The enzyme may exist as isozymes with pIs at 6.2 and 6.3. […] The endothelin converting enzyme activity in active Mono Q fractions was inhibited by pepstatin A with an IC50 of 5 nM. The-endothelin converting enzyme activity of solubilized endothelin converting enzyme (P3 from rat lung) is not inhibited at 40 mM by TLCK, aprotinin, PMSF, E-64, bestatin, phosphoramidon or thiorphan. The endothelin converting enzyme activity of active Mono Q fractions was stimulated by divalent metal cations in the order of Mn^+2 ≥Zn^+2 >Ca^+2 >Mg^+2 ≥Ba^+2 =Co^+2.

Compound | inhibition of endothelin converting enzyme activity
CC(C)C[C@H](NC(=O)[C@H]1O[C@@H]1C(=O)O)C(=O)NCCCCN=C(N)N [Example E-64, E-64] | not inhibited
O=S(=O)(F)Cc1ccccc1 [PMSF] | not inhibited
Cc1ccc(S(=O)(=O)NC(CCCCN)C(=O)CCl)cc1 (centres unmarked) [TLCK] | not inhibited
CC(C)C[C@H](NC(=O)[C@@H](O)[C@H](N)Cc1ccccc1)C(=O)O [bestatin] | not inhibited
CC(C)C[C@H](NP(=O)(O)O[C@@H]1O[C@@H](C)[C@H](O)[C@@H](O)[C@H]1O)C(=O)N[C@@H](Cc1c[nH]c2ccccc12)C(=O)O [phosphoramidon] | not inhibited
O=C(O)CNC(=O)C(CS)Cc1ccccc1 (centres unmarked) [thiorphan] | not inhibited
aprotinin | not inhibited

From patent US5338726A, “Endothelin converting enzyme inhibitors” (Abbott Laboratories, priority 1992, dated 1994)
